From paper PMC4740973 (Bioconjugate chemistry, 2015)
Read-outs that look alike come from different tables or passages of the source.

Tests used:
[1] = cited from earlier work
MMP-9 = MMP-9 (Mus musculus, UniProt P41245); experiment: Peptide cleavage by recombinant MMP-9; format: biochemical; settings: prinomastat added to prodrug with MMP-9, similar conditions (Figure S1)
Chain of MMP-9 (P41245 108-730): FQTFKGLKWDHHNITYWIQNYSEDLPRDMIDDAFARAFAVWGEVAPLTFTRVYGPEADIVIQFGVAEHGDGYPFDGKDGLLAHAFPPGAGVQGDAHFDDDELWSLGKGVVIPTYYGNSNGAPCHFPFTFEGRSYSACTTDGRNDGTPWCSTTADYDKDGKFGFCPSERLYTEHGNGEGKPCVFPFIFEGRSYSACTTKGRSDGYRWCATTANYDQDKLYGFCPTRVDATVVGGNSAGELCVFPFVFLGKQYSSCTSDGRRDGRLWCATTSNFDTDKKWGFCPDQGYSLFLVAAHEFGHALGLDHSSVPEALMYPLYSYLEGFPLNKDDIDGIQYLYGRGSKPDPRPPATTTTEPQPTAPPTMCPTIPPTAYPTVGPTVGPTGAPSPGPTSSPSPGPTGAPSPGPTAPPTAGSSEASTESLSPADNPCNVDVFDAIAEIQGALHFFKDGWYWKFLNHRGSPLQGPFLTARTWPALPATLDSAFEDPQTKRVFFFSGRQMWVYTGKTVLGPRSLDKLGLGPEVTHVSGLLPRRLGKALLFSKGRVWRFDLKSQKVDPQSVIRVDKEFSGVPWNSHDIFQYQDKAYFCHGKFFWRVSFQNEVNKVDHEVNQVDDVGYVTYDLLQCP

## CC[C@H](C)[C@H](NC(=O)CN)C(=O)NCC(=O)N[C@@H](C)C(=O)N[C@H](C(=O)N[C@@H](CC(C)C)C(=O)N[C@@H](CCCCN)C(=O)N[C@H](C(=O)N[C@@H](CC(C)C)C(=O)N[C@H](C(=O)N[C@H](C(=O)NCC(=O)N[C@@H](CC(C)C)C(=O)N1CCC[C@H]1C(=O)N[C@@H](C)C(=O)N[C@@H](CC(C)C)C(=O)N[C@H](C(=O)N[C@@H](CO)C(=O)N[C@@H](Cc1c[nH]c2ccccc12)C(=O)N[C@H](C(=O)N[C@@H](CCCCN)C(=O)N[C@@H](CCCNC(=N)N)C(=O)N[C@@H](CCCCN)C(=O)N[C@@H](CCCNC(=N)N)C(=O)N[C@@H](CCC(N)=O)C(=O)N[C@@H](CCC(N)=O)C(N)=O)[C@@H](C)CC)[C@@H](C)CC)[C@@H](C)O)[C@@H](C)O)C(C)C)C(C)C [melittin, Melittin]
[1]; free melittin
  plasma half-life: 24 min
[1]; melittin incorporated onto perfluorocarbon nanoparticles
  plasma half-life: over 300 minutes

## CC1(C)SCCN(S(=O)(=O)c2ccc(Oc3ccncc3)cc2)[C@H]1C(=O)NO [prinomastat]
MMP-9
  effect on prodrug cleavage by MMP-9: prevented cleavage of the prodrug
